According to patent publication US10336732B2, “1-heterocyclyl isochromanyl compounds and analogs for treating CNS disorders” (Sunovion Pharmaceuticals Inc., priority 2015, dated 2019):

Tested on: mice
Assay: Neuropharmacological assay (SmartCube), behavioral signature of compound-treated mice
Format: in vivo
Conditions: i.p. 15 min before behavioral test, most efficacious dose(s) of 3 doses
Text: Neurosci. […] As reported in Roberds, because psychiatric diseases generally result from disorders of cell-cell communication or circuitry, intact systems are useful in detecting improvement in disease-relevant endpoints. These endpoints are typically behavioral in nature, often requiring human observation and interpretation. To facilitate testing of multiple compounds for behavioral effects relevant to psychiatric disease, PsychoGenics, Inc. (Tarrytown, N.Y., “PGI”) developed SmartCube™, an automated system in which behaviors of compound-treated mice are captured by digital video and analyzed with computer algorithms. […] PGI Analytical Systems uses data from SmartCube™ to compare the behavioral signature of a test compound to a database of behavioral signatures obtained using a large set of diverse reference compounds. (The composition of the database as well as validation of the method is further described in Roberds). In this way, the neuropharmacological effects of a test compound can be predicted by similarity to major classes of compounds, such as antipsychotics, anxiolytics and antidepressants.
The SmartCube™ system produces an activity signature indicating the probability that the activity of the test compound at the administered dose matches a given class of neuropharmacological agents. (See, e.g., Roberds, FIGS. 2 and 3). The test compound is simultaneously compared against multiple classes of agents; thus, a separate probability is generated for each behavioral effect measured (e.g., anxiolytic activity, analgesic activity, etc.). In Table 4, these probabilities are reported for each behavioral effect measured as follows:
Provided compounds were dissolved in a mixture of Pharmasolve™ (N-methyl-2-pyrrolidone), polyethylene glycol and propylene glycol, and were injected i.p. 15 min. before the behavioral test. For each compound, injections were administered at 3 different doses. For each behavioral effect measured, results for the most efficacious dose(s) are presented.

| SMILES | AD: ADHD (probability that behavioral signature matches class) | AG: analgesic (probability that behavioral signature matches class) | AX: anxiolytic (probability that behavioral signature matches class) | CE: cognitive enhancer (probability that behavioral signature matches class) | DP: anti-depressant (probability that behavioral signature matches class) | HA: hallucinogen (probability that behavioral signature matches class) | MS: mood stabilizer (probability that behavioral signature matches class) | PS: anti-psychotic (probability that behavioral signature matches class) | SD: sedative hypnotic (probability that behavioral signature matches class) | UN: uncharacterized CNS activity (probability that behavioral signature matches class) |
| --- | --- | --- | --- | --- | --- | --- | --- | --- | --- | --- |
| N#Cc1ccc2c(c1)CCO[C@H]2[C@H]1CCCN1 [Compound I-45, (R)-1-((R)-pyrrolidin-2-yl)isochroman-6-carbonitrile] | + (LOQ ≤ + <5%) | ++ (5% ≤ ++ <25%) | +++ (25% ≤ +++ <50%) | + (LOQ ≤ + <5%) | ++ (5% ≤ ++ <25%) | + (LOQ ≤ + <5%) | + (LOQ ≤ + <5%) | + (LOQ ≤ + <5%) | + (LOQ ≤ + <5%) | + (LOQ ≤ + <5%) |
| c1c2c(cc3c1OCO3)[C@@H]([C@@H]1CCCN1)OCC2 [Compound I-53, (S)-2-((S)-7,8-dihydro-5H-[1,3]dioxolo[4,5-g]isochromen-5-yl)pyrrolidine] | + (LOQ ≤ + <5%) | + (LOQ ≤ + <5%) | + (LOQ ≤ + <5%) | + (LOQ ≤ + <5%) | + (LOQ ≤ + <5%) | + (LOQ ≤ + <5%) | + (LOQ ≤ + <5%) | + (LOQ ≤ + <5%) | + (LOQ ≤ + <5%) | + (LOQ ≤ + <5%) |
| c1cc2c(c3c1CCO[C@H]3[C@@H]1CCN1)OCO2 [Compound I-144, (S)-2-((R)-7,9-dihydro-6H-[1,3]dioxolo[4,5-h]isochromen-9-yl)azetidine] | ++ (5% ≤ ++ <25%) | ++ (5% ≤ ++ <25%) | ++ (5% ≤ ++ <25%) | ++ (5% ≤ ++ <25%) | +++ (25% ≤ +++ <50%) | + (LOQ ≤ + <5%) | ++ (5% ≤ ++ <25%) | +++ (25% ≤ +++ <50%) | + (LOQ ≤ + <5%) | +++ (25% ≤ +++ <50%) |
| c1ccc2c(c1)CCO[C@@H]2[C@@H]1CCCCN1 [Compound I-71, (S)-2-((S)-isochroman-1-yl)piperidine] | + (LOQ ≤ + <5%) | + (LOQ ≤ + <5%) | +++ (25% ≤ +++ <50%) | ++ (5% ≤ ++ <25%) | ++ (5% ≤ ++ <25%) | + (LOQ ≤ + <5%) | ++ (5% ≤ ++ <25%) | ++ (5% ≤ ++ <25%) | + (LOQ ≤ + <5%) | + (LOQ ≤ + <5%) |
| Fc1ccc2c(c1)CCO[C@@H]2[C@@H]1CCCN1 [Compound I-10, (S)-2-((S)-6-fluoroisochroman-1-yl)pyrrolidine] | + (LOQ ≤ + <5%) | ++ (5% ≤ ++ <25%) | ++ (5% ≤ ++ <25%) | ++ (5% ≤ ++ <25%) | ++ (5% ≤ ++ <25%) | + (LOQ ≤ + <5%) | + (LOQ ≤ + <5%) | ++ (5% ≤ ++ <25%) | + (LOQ ≤ + <5%) | + (LOQ ≤ + <5%) |
| Fc1cccc2c1CCO[C@@H]2[C@H]1CCCN1 [Compound I-16, (R)-2-((S)-5-fluoroisochroman-1-yl)pyrrolidine] | + (LOQ ≤ + <5%) | + (LOQ ≤ + <5%) | ++ (5% ≤ ++ <25%) | ++ (5% ≤ ++ <25%) | ++ (5% ≤ ++ <25%) | + (LOQ ≤ + <5%) | ++ (5% ≤ ++ <25%) | +++ (25% ≤ +++ <50%) | + (LOQ ≤ + <5%) | +++ (25% ≤ +++ <50%) |
| Fc1ccc2c(c1)[C@@H]([C@@H]1CCCN1)OCCC2 [Compound I-106, (S)-2-((S)-8-fluoro-1,3,4,5-tetrahydrobenzo[c]oxepin-1-yl)pyrrolidine] | + (LOQ ≤ + <5%) | ++ (5% ≤ ++ <25%) | ++ (5% ≤ ++ <25%) | +++ (25% ≤ +++ <50%) | + (LOQ ≤ + <5%) | + (LOQ ≤ + <5%) | + (LOQ ≤ + <5%) | ++ (5% ≤ ++ <25%) | + (LOQ ≤ + <5%) | + (LOQ ≤ + <5%) |

Same assay, conditions: i.p. 15 min before behavioral test, most efficacious dose(s) of 3 doses

| SMILES | XG: anxiogenic (probability that behavioral signature matches class) |
| --- | --- |
| N#Cc1ccc2c(c1)CCO[C@H]2[C@H]1CCCN1 [Compound I-45, (R)-1-((R)-pyrrolidin-2-yl)isochroman-6-carbonitrile] | + (LOQ ≤ + <5%) |
| c1c2c(cc3c1OCO3)[C@@H]([C@@H]1CCCN1)OCC2 [Compound I-53, (S)-2-((S)-7,8-dihydro-5H-[1,3]dioxolo[4,5-g]isochromen-5-yl)pyrrolidine] | + (LOQ ≤ + <5%) |
| c1cc2c(c3c1CCO[C@H]3[C@@H]1CCN1)OCO2 [Compound I-144, (S)-2-((R)-7,9-dihydro-6H-[1,3]dioxolo[4,5-h]isochromen-9-yl)azetidine] | + (LOQ ≤ + <5%) |
| c1ccc2c(c1)CCO[C@@H]2[C@@H]1CCCCN1 [Compound I-71, (S)-2-((S)-isochroman-1-yl)piperidine] | + (LOQ ≤ + <5%) |
| Fc1ccc2c(c1)CCO[C@@H]2[C@@H]1CCCN1 [Compound I-10, (S)-2-((S)-6-fluoroisochroman-1-yl)pyrrolidine] | + (LOQ ≤ + <5%) |
| Fc1cccc2c1CCO[C@@H]2[C@H]1CCCN1 [Compound I-16, (R)-2-((S)-5-fluoroisochroman-1-yl)pyrrolidine] | + (LOQ ≤ + <5%) |
| Fc1ccc2c(c1)[C@@H]([C@@H]1CCCN1)OCCC2 [Compound I-106, (S)-2-((S)-8-fluoro-1,3,4,5-tetrahydrobenzo[c]oxepin-1-yl)pyrrolidine] | + (LOQ ≤ + <5%) |
